Results on two molecules are retold here after patent publication US9140688B2, “Sperm staining and sorting methods” (INGURAN, LLC, priority 2011, dated 2015).

For data set [1] the following is noted: solvent water; shorter-wavelength local maximum; cited from earlier work.
The subject of data set [2] is X- and Y-chromosome bearing bovine sperm stained with Hoechst 33342. Nature of the data set: Split quality: height of peak divided by height of valley (PV), flow cytometry of stained bovine sperm. The class given is cell-based. The conditions noted are these: for Height of Peak/Height of Valley: Ex 5; for PV: Ex 6, resulting pH 6.70.
Data set [3] deals with membrane compromised bovine sperm stained with Hoechst 33342. Nature of the data set: Dead quenching: dead gate intensity divided by live gate intensity, flow cytometry of stained bovine sperm. The class given is cell-based. Conditions: for Dead Intensity (dead gate intensity divided by live gate intensity): Ex 5; for Intensity (dead gate): Hoechst 48 μM. From the text:
FIG. 4 illustrates an example bivariate plot and univariate histogram of the parameters measured during sex selection by a FACS on a flow cytometer. […] Without a dead quenching dye, both populations of sperm would overlap to a large extent, with unpredictable variations in the dead sperm.
The entire ejaculate of sperm was suspended in first staining buffer, specifically a 7.4 pH TALP described in TABLE 1, to a concentration of 160×10^6 sperm per mL (determined on nucleocounter) and divided into three aliquots of about 20 mL into 50 mL Falcon tubes and pre-warmed for 10 minutes at 34° C. The DNA selective fluorescent dye, Hoechst 33342, was added and samples were held at 34° C. for 60 minutes. 3 different Hoechst 33342 Stain Levels were used=12 μL, 14 μL and 16 μL per 2 mL (effective concentrations of 48 μM, 56 μM, 64 μM).
Preparation of the second buffer including the dead quenching dye—A 2 L bag of TALP, described in TABLE 1, was adjusted to pH 5.60 using HCl and then sterile filtered. […] For each of the four dyes tested (R40—red food dye No. 40, Y5—yellow food dye No. 5, Y6—yellow food dye No. 6 and PR—phenol red), an appropriate number of milligrams of each powder was placed in a Erlenmeyer Flask and then an exact amount of TALP pH 5.60 was added to create a […] concentration of the dye. The result was a working TALP stock for each dye with a 100% (125 μM) relative amount of dye 50% relative (62.5 μM) and 20% relative (25 μM) solutions were made by dilution of 100% by TALP pH 5.60.
After this “bulk” staining for 60 minutes, 1 mL aliquots of stained sperm were combined with 1 mL aliquots of the second buffer including the dead quenching dyes. Samples sat for approximately 30 minutes at room temperature before being analyzed on a MoFlo SX (Beckman Coulter, USA) sperm sorting flow cytometer. Event rates were held as close to 13,000 as possible at the point of data acquisition.
The total number of individual treatments was 42 tubes, each containing 2 mL of stained sample. The alignment of the sorter was established using nuclei and confirmed with live sample from the 50% Red 40 series. Once good alignment was established, each tube was placed on the sorter long enough to establish a stabile dead gate population (about 30 seconds) and then a screenshot was taken and saved as a .jpeg image. This approach of rapidly documenting each sample is used to assure the most consistent alignment between all samples. Realignment of sorter will not cause differences in the intensities of live and dead gate populations but will cause differences in split quality.
FIG. 4 illustrates an example histogram. The ratio of dead gate intensity divided by live gate intensity is created by dividing the distance “A” by the distance “B” shown as a percentage. Lower values mean higher levels of quenching. The ratio of peak height divided by valley height is created by dividing the distance “C” by the distance “D”. A value of 1.00 means “no split” while higher values mean “better splits”. […]
Background: In flow cytometry, cells or beads pass a laser one at a time.

For a further data set, the system named is sperm. The conditions noted are these: background statement; cited from earlier work.
[4] abbreviates: dye 62.5 μM, Hoechst 12 μL/2 mL.
The mark [5] stands for this setting: dye 62.5 μM, Hoechst 14 μL/2 mL.
Where [6] appears, read: dye 62.5 μM, Hoechst 16 μL/2 mL.

For the molecule `O=C([O-])C1=NN(c2ccc(S(=O)(=O)[O-])cc2)C(=O)/C1=N/Nc1ccc(S(=O)(=O)[O-])cc1.[Na+].[Na+].[Na+]` [Yellow 5, Trisodium (4E)-5-oxo-1-(4-sulfonatophenyl)-4-[(4-sulfonatophenyl)hydrazono]-3-pyrazolecarboxylate], the “Expected Absorption Maxima” value in data set [1] is reported as 422 nm. Besides, the “Height of Peak/Height of Valley” value is reported as 1.72 in data set [2] (dye 25 μM, Average of 12 and 14 μL series); 1.90 in data set [2] (dye 25 μM, Hoechst 12 μL/2 mL); 1.54 in data set [2] (dye 25 μM, Hoechst 14 μL/2 mL); 1.00 in data set [2] (dye 25 μM, Hoechst 16 μL/2 mL); 1.65 in data set [2] (dye 62.5 μM, Average of 12 and 14 μL series); 1.60 in data set [2] (setting [4]). Further, the “Height of Peak/Height of Valley” value turned out to be 1.70 in data set [2] (setting [5]); 1.00 in data set [2] (setting [6]); 1.82 in data set [2] (dye 125 μM, Average of 12 and 14 μL series); 1.72 in data set [2] (dye 125 μM, Hoechst 12 μL/2 mL); 1.92 in data set [2] (dye 125 μM, Hoechst 14 μL/2 mL); 1.03 in data set [2] (dye 125 μM, Hoechst 16 μL/2 mL). Besides, the PV is given as 1.00 in data set [2] (dye 125 μM, Hoechst 48 μM); 1.00 in data set [2] (dye 250 μM, Hoechst 48 μM); 1.00 in data set [2] (dye 500 μM, Hoechst 48 μM); 1.00 in data set [2] (dye 750 μM, Hoechst 48 μM); 1.00 in data set [2] (dye 875 μM, Hoechst 48 μM); 1.00 in data set [2] (dye 1250 μM, Hoechst 48 μM (understained)). Further, the “Dead Intensity (dead gate intensity divided by live gate intensity)” value in data set [3] (dye 25 μM, Average of Hoechst levels) stood at 90%; in data set [3] (dye 25 μM, Hoechst 12 μL/2 mL), 90%; in data set [3] (dye 25 μM, Hoechst 14 μL/2 mL), 90%; in data set [3] (dye 25 μM, Hoechst 16 μL/2 mL), 90%; in data set [3] (dye 62.5 μM, Average of Hoechst levels), 74%; in data set [3] (setting [4]), 74%. The “Dead Intensity (dead gate intensity divided by live gate intensity)” value turned out to be 77% in data set [3] (setting [5]); 70% in data set [3] (setting [6]); 57% in data set [3] (dye 125 μM, Average of Hoechst levels); 54% in data set [3] (dye 125 μM, Hoechst 12 μL/2 mL); 63% in data set [3] (dye 125 μM, Hoechst 14 μL/2 mL); 55% in data set [3] (dye 125 μM, Hoechst 16 μL/2 mL). The “amount of dye needed for a similar dead gate intensity ratio as red food dye No. 40 and yellow food dye No. 6” value in data set [3] (Ex 6) is “about five times as much”. Moreover, the “Intensity (dead gate)” value is on record as 63% in data set [3] (Ex 6, dye 125 μM, resulting pH 6.70); 48% in data set [3] (Ex 6, dye 250 μM, resulting pH 6.70); 43% in data set [3] (Ex 6, dye 500 μM, resulting pH 6.70); under 30% in data set [3] (Ex 6, dye 750 μM, resulting pH 6.70); under 30% in data set [3] (Ex 6, dye 875 μM, resulting pH 6.70); under 30% in data set [3] (Ex 6, dye 1250 μM, second buffer pH 5.60 (resulting pH 6.70)).

For `CC[N+](C)(CC)CCC[n+]1c(-c2ccccc2)c2cc(N)ccc2c2ccc(N)cc21.[I-].[I-]` [propidium iodine], the toxicity to sperm entry with sperm was “toxic to sperm”.
